We go through 8 compounds from US20260199301A1, “PHENYL-PYRAZOLO[3,4-B]PYRIDINE-4-CARBOXYLIC ACID DERIVATES FOR USE AS 5-ALPHA REDUCTASE ANTAGONISTS IN METHODS OF TREATMENT” (UNIVERSITY OF CAPE TOWN, priority 2022, published 2026).

In general, IC50 refers to the concentration needed to halve the response being measured. The solubility is how much of the substance goes into solution per volume. A higher solubility goes with a readily soluble substance. For orientation: hepatocyte CLint means the rate of metabolic loss divided by the concentration.

For data set [1], the system named is DU-145 cell line. Description: MTT assay IC50 in DU-145 cell line. The settings on record: called antagonist activity against SRD5A2. Type of data set: cell-based, human. As to the method: (§1) The DU-145 cell lines and HEK293 cell lines were grown to 70% confluence in DMEM supplemented with 10% (v/v) fetal bovine serum and 1% antibiotic (100 μg/mL of streptomycin and 100 unit/mL of penicillin (P/S) at 37° C. in a 5% CO2 environment.
(§2) The half maximal inhibitory concentration (IC50) was established in the selected cell lines. The cell lines previously identified as having high endogenous expression levels of SRD5A2 were used to determine the in-vitro cytotoxic effects of Bsy1 on DU-145 and HEK293. The results were compared with the comparative compounds finasteride and dutasteride. The cytotoxic concentration and cell viability of these drugs were evaluated using the 3-(4,5-dimethylthiazol-2-yl)-2,5-diphenyl-2H-tetrazolium bromide (“MTT”) assay, using the comparative compounds as positive controls.
(§3) The study seeded cells at 1×10^4 cells/well density using a 96-well plate and incubated them for 24 hours to allow the cells to attach in a 5% CO2 incubator at 37° C. Different serial concentrations of the compounds treated the cells, 1% (v/v) DMSO/methanol in DMEM treated the control cells, and DMEM only served as a blank. Cells were stained with 100 μl of a 0.5 mg/ml MTT solution and incubated in a 5% CO2 atmosphere at 37° C. incubators for 4 hours. The medium was aspirated, and 100 μl of absolute ethanol was added to each well. The formation of […] measured all growth and chemosensitivity. Absorbance was detected spectrophotometrically at 570 nm using a reference wavelength of 630 nm. The experiments were performed in triplicate.
(§4) The dose-response from the non-linear curve (inhibitor vs normalised response—variable slope curve), plotted using GraphPad Prism V 9.3.1, was used to determine the IC50 values of these cells.
The study determined the ICs values using a non-linear curve fit with a hyperbola model (FIG. 3).
On the technique in general: Tetrazolium dyes change colour on reduction, which living cells bring about.

Data set [2] concerns SRD5A2 gene. Description: qPCR relative expression of SRD5A2 gene in DU-145 cell line. Type of data set: cell-based, human. The settings on record: DU-145, 24 hours at IC50 (finasteride 0.9 nM, dutasteride 1.6 μM, Bsy1 0.0054 nM). The method, then: as §1
(§5) The androgen-independent DU-145 cell line, treated with finasteride (0.9 nM), dutasteride (1.6 μM), and Bsy1 (0.0054 nM) for 24 hours, was measured for their SRD5A gene regulation using qPCR. […] The relative expression of the SRD5A2 gene was reduced by approximately 3-fold for finasteride and dutasteride and 2-fold for Bsy1 (FIG. 5A). However, it should be noted that the finasteride concentrations were 100-fold, and dutasteride 1000-fold, higher than the concentration of Bsy1. […] The level of inhibitory action against SRD5A1 and SRD5A2 is surprising as it is expected that that the phenyl-pyrazolo[3,4-b]pyridine-4-carboxylic acid Bsy1 and its derivates, as described herein, will show similar inhibition results. […] Experiments were repeated three times.]
(§6) A two-way ANOVA statistical analysis was conducted to compare the gene suppression levels of each drug treatment against the control (untreated), using Dunnett's correction test (DCT) (FIG. 5B). [FIG. 5B—two-way ANOVA Dunnett test of the Control vs Treatment at IC50 values. Comparison tests of control vs. drug treatment at p<0.05 for: SRD5A1 (ns); SRD5A2**; SRD5A3 (ns). […]
(In qPCR the cycle at which signal appears reflects the starting amount.)

The subject of data set [3] is HEK293 and DU-145 cell lines. Briefly: Selectivity index from ratio of IC50 values, normal cells vs cancer cells. The class given is cell-based, human. To be noted: normal cells (HEK293) vs cancer cells (DU-145). The method, then: The selectivity index, indicating the selectivity of a given compound between normal cells and cancer cells, was calculated from the ratio of their respective IC50 values (Equation 1).

Data set [4] relates to SRD5A2 gene. Description: qPCR relative expression of SRD5A2 gene in HEK293 cell line. The class given is cell-based, human. To be noted: for relative expression of the SRD5A2 gene increased: HEK293, 24 hours at IC50 (finasteride 1.34 nM, dutasteride 1.29 μM, Bsy1 0.02 nM). The method, then: as §1
Experiments were repeated three times.]
The two-way ANOVA compared the expression levels of the SRD5A genes and between the different drugs in HEK293 cell lines (FIG. 6 B). […] Data were expressed for each bar as means±standard error of mean ****P≤0.0001 from control.

Data set [5] has as its system HEK293 cell line. Description: MTT assay IC50 in HEK293 cell line. Type of data set: cell-based, human. As to the method: as §1, §2, §3, §4
However, the IC50 values for Bsy1 in the HEK293 cell lines were higher than in the DU-145 cells.

A short description of data set [6]: Solubility, miniaturised shake-flask method. Type of data set: physicochemical. The settings on record: aqueous buffer, thermodynamic from solid, pH 7.4 as headed, phosphate buffer, 25° C. As to the method: […] Briefly, 4 μl of a 10 mM stock in DMSO was added to a 96-well plate and evaporated using a GeneVac system. […] At the end of this incubation, the samples were centrifuged at 3500 g for 15 min then transferred to an analysis plate. A calibration curve in DMSO for each sample between 10-220 μM was prepared and included in the analysis plate. Analysis was then performed by LC-MS (Agilent Rapid Resolution HPLC, AB SCIEX 4500 MS) and solubility of each sample determined from the corresponding calibration curve.

A short description of data set [7]: Human hepatocyte stability.
Description: (§7) Hepatocyte stability was performed using a 5-point assay design using cryopreserved hepatocytes in suspension. Briefly, the compounds (1 μM) were incubated at 37° C. in human (Hepatosure 100-donor pool, XenoTech LLC) and mouse (Cryostax mouse CD1, XenoTech LLC) hepatocytes (500,000 cells/ml) for various timepoints over 120 min. Reactions were quenched by adding ice-cold acetonitrile containing internal standard. The samples were then centrifuged, and the samples analysed by LC-MS/MS (Agilent Rapid Resolution HPLC, AB SCIEX 4500 MS) for the disappearance of parent compound. Half-life, clearance and hepatic excretion ratios were determined using standard equations.
(§8) The CLint,app value can be used to calculate a predicted in vivo value by factoring in scaling factors (number of hepatocytes per gram of liver and grams of liver per kg body weight) and binding (measured plasma protein binding and estimated incubational binding). The predicted mouse and human clearance values represent the total hepatic clearances that would be expected for these compounds in vivo.
Data set [8] in a line: Plasma protein binding by ultracentrifugation. The settings on record: mouse, read-out: Mouse PPB (converted). Type of data set: in vitro ADME.
Data set [9] is described as follows: Mouse hepatocyte stability.
Description: as §7, §8
The test system of data set [10] is SRD5A1 gene. Description: qPCR relative expression of SRD5A1 gene in DU-145 cell line. The class given is cell-based, human. The settings on record: DU-145, 24 hours at IC50 values. The method, then:
as §1, §5, §6

Data set [11] is described as follows: in vitro. To be noted: CD1, mouse, hepatocytes.
Description: as §7, §8
For data set [12] the following is noted: CD1, mouse, 1 μM.
Description: as §7, §8
For data set [13] the following is noted: 1 μM.
Description: as §7, §8
In data set [14] the target is T1, SRD5A2 (Homo sapiens, UniProt P31213).
T1 sequence (P31213 1-254): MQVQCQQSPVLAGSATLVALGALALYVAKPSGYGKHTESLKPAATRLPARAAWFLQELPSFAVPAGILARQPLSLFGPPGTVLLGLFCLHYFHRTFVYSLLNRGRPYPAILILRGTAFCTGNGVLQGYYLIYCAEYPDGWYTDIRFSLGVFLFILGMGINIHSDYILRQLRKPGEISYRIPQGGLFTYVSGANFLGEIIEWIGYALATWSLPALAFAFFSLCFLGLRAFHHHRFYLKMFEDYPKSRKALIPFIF
To be noted: cited from earlier work.

Data set [15] can be described thus: in vitro. The settings on record: human, hepatocytes.
Description: as §7, §8
Setting [16] is: Homo sapiens, DU-145, DU-145 cell line.
Where [17] appears, read: Homo sapiens, HEK293, HEK293 cell line, called antagonist activity against SRD5A2, read-out: IC50.

Values after ≈ are worked out from the molar mass of the structure shown. Read-outs that look alike come from different tables or passages of the source.

Consider `C[C@]12C=CC(=O)N[C@@H]1CC[C@@H]1[C@@H]2CC[C@]2(C)[C@@H](C(=O)Nc3cc(C(F)(F)F)ccc3C(F)(F)F)CC[C@@H]12` [Dutasteride], for which the IC50 came to 1670 ± 1850 nM in data set [1] (DU-145 cell line); 1600 nM in data set [1] (setting [16]); 1210 ± 1370 nM in data set [5] (HEK293 cell line, called antagonist activity against SRD5A2); 1290 nM in [5] (Homo sapiens, HEK293, HEK293 cell line, called antagonist activity against SRD5A2). In data set [2], the “relative expression of the SRD5A2 gene reduced” value is recorded as “approximately 3 fold”. For the same compound, the “SELECTIVITY INDEX” value in data set [3] was determined as 0.81. Besides, in [4], the “relative expression of the SRD5A2 gene increased” value is “approximately 2 fold”.

Compound `COc1ccc(N2N=C(C3CC3)C3C(C(=O)O)=CC(=O)NC32)cc1` (centres unmarked) [Bsy6, 3-cyclopropyl-1-(4-methoxyphenyl)-6-oxo-3a,6,7,7a-tetrahydro-1H-pyrazolo[3,4-b]pyridine-4-carboxylic acid] registered a solubility at 24 h in data set [6] of 120 µM (≈ 39.3 µg/mL).

As to `O=C1C=C(C(=O)O)C2C(C3CC3)=NN(c3cccc(F)c3)C2N1` (centres unmarked) [Bsy5, 3-cyclopropyl-1-(3-fluorophenyl)-6-oxo-3a,6,7,7a-tetrahydro-1H-pyrazolo[3,4-b]pyridine-4-carboxylic acid], the solubility at 24 h in [6] is more than 200 µM.

In turn, `O=C1C=C(C(=O)O)C2C(C3CC3)=NN(c3ccccc3F)C2N1` (centres unmarked) [Bsy4, 3-cyclopropyl-1-(2-fluorophenyl)-6-oxo-3a,6,7,7a-tetrahydro-1H-pyrazolo[3,4-b]pyridine-4-carboxylic acid] gave a solubility at 24 h in [6] of more than 200 µM.

In data set [6], `O=C1C=C(C(=O)O)C2C(C3CC3)=NN(c3ccc(Cl)cc3)C2N1` (centres unmarked) [Bsy3, 1-(4-chlorophenyl)-3-cyclopropyl-6-oxo-3a,6,7,7a-tetrahydro-1H-pyrazolo[3,4-b]pyridine-4-carboxylic acid] showed a solubility at 24 h of 190 µM (≈ 63 µg/mL).

Regarding `O=C1C=C(C(=O)O)C2C(C3CC3)=NN(c3ccc(F)cc3)C2N1` (centres unmarked) [Bsy1, 3-cyclopropyl-1-(4-fluorophenyl)-6-oxo-3a,6,7,7a-tetrahydro-1H-pyrazolo[3,4-b]pyridine-4-carboxylic acid], the figures for the IC50 in data set [1] (DU-145 cell line) and in data set [5] (setting [17]) were 5400 nM and 0.02 nM, respectively. Also, the hepatocyte CLint at 1 μM in [7] (human, cryopreserved hepatocytes in suspension) is 4.1 µL/min/1e6 cells; in data set [9] (CD1, mouse, cryopreserved hepatocytes in suspension), less than 6.4 µL/min/1e6 cells. Moreover, the hepatic clearance classification entry in [7] (human, predicted clearance below 30% of liver blood flow 20.7 ml/min/kg) is reported as “low hepatic clearance”; in data set [9] (mouse, predicted clearance below 30% of liver blood flow 126 ml/min/kg), “low hepatic clearance”. Also, in data set [7] (scaled from human hepatocyte CLint,app), the “Predicted human Clearance” value was 6.7 mL/min/kg. The fraction unbound at 4 h, 10 μM in data set [8] is 0.95. The “Predicted mouse Clearance” value in [9] (scaled from mouse hepatocyte CLint,app) is less than 13.8 mL/min/kg. Further, the solubility at 24 h in data set [6] was more than 200 µM. In addition, the SRD5A1 suppression result in data set [10] is given as “comparable”. Besides, the “SELECTIVITY INDEX” value in [3] came out at 3.7. The “relative expression of the SRD5A2 gene increased” value in data set [4] is given as “approximately 2 fold”.

As to `O=C1C=C(C(=O)O)C2C(C3CC3)=NN(c3ccc(Br)cc3)C2N1` (centres unmarked) [Bsy2, 1-(4-bromophenyl)-3-cyclopropyl-6-oxo-3a,6,7,7a-tetrahydro-1H-pyrazolo[3,4-b]pyridine-4-carboxylic acid], the solubility at 24 h in data set [6] was determined as 195 µM (≈ 73.4 µg/mL).

Take `CC(C)(C)NC(=O)[C@H]1CC[C@H]2[C@@H]3CC[C@H]4NC(=O)C=C[C@]4(C)[C@H]3CC[C@]12C` [Finasteride]: the IC50 in data set [1] (DU-145 cell line) turned out to be 0.72 ± 1.09 nM; in data set [1] (setting [16]), 0.9 nM; in data set [5] (HEK293 cell line, called antagonist activity against SRD5A2, read-out: IC50) it was 1.24 ± 1.43 nM; in data set [5] (setting [17]), 1.34 nM. The fraction unbound at 4 h, 10 μM in data set [8] is 0.27. Besides, the hepatocyte CLint at 1 μM in [11] stood at 13.8 µL/min/1e6 cells; in data set [15], 4.5 µL/min/1e6 cells. The “Predicted mouse Clearance” value in data set [12] is 10.6 mL/min/kg. In addition, in [13], the “Predicted human Clearance” value was 3.3 mL/min/kg. In [14], the “selectivity for SRD5A2 than SRD5A1” value was 100 fold. In addition, the “relative expression of the SRD5A2 gene reduced” value in data set [2] was “approximately 3 fold”. In addition, the solubility at 24 h in data set [6] was more than 200 µM. Further, in [10], the SRD5A1 suppression entry is recorded as “comparable”. Further, the “SELECTIVITY INDEX” value in [3] was 1.49. Moreover, the “relative expression of the SRD5A2 gene increased” value in [4] is on record as approximately 0.75 fold. Further, the “SRD5A2 expression, drug treatment vs untreated, two-way ANOVA Dunnett test” value in [4] (HEK293, IC50 values) is listed as “ns”.
